Here are results for seven compounds from article PMC11370260 (Microbiology Spectrum, 2024).

Structures are written as SMILES.

The target of one assay is T1, LasR (Pseudomonas aeruginosa, UniProt P25084).
T1 construct: expressed in transfected cells; host or cells: E. coli DH5α carrying pJN105-L and pSC11-L
Description: E. coli LasR bioreporter (Para-lasR, PlasI-lacZ), β-galactosidase readout. The format is cell-based. The settings on record: for IC50: IC50 ± CI, LasR reporter, competed against 100 nM 3OC12-HSL, 95% confidence interval in parentheses; for fold lower concentration inhibiting LasR-specific reporter than constitutive reporter: IC50 constitutive reporter vs LasR reporter. An excerpt:
(§1) To characterize compounds for their potential activity as LasR antagonists, we used heterologous E. coli, which enables LasR to be isolated from other host regulation effects. We used an E. coli strain expressing LasR from an arabinose-inducible promoter (Para-lasR) on plasmid pJN105-L and a second plasmid with the LasR-inducible lasI promoter fused to a promoterless lacZ reporter (PlasI-lacZ) on plasmid pSC11-L (Fig. 2A). […] As a control, we also constructed an E. coli strain carrying a plasmid with lacZ expressed from the constitutive aphA-3 promoter ([29], [30]), pVT19.
(§2) To assess LasR activation of lasR expression in recombinant E. coli, we used E. coli strain DH5α carrying two plasmids; plasmid pJN105-L ([50]) with an arabinose-inducible P. aeruginosa lasR and plasmid pSC11-L ([51]) with the promoter of the LasR-responsive gene lasI fused to a lacZ reporter. For some studies, pJN105-L was replaced with derivatives of this plasmid encoding LasR mutants with single amino acid substitutions ([33]). To assess RhlR activation of rhlR expression in recombinant E. coli, we used E. coli DH5α with plasmid pECP61.5 ([38]) with an IPTG-inducible ptac-rhlR and an RhlR-responsive gene rhlA fused to the lacZ reporter. For constitutive expression of the lacZ reporter, we used E. coli DH5α with plasmid pVT19, which has the lacZ gene fused to the constitutive aphA-3 promoter. To construct pVT19, the constitutive aphA-3 promoter ([29], [30]) was amplified from a pTCV-lac derivative using primers Vlac1 and Vlac2 ([30]). The resulting amplicon was digested with EcoRI and BamHI and ligated into similarly digested pKS12A ([52]). The resulting plasmid with the aphA-3 promoter transcriptionally fused to lacZ was designated pVT19. For constitutive expression of the gfp reporter, we used E. coli DH5α with plasmid pUC18T-mini-Tn7T-Gm-gfpmut3 ([53]).
(§3) To assess LasR activation of lasR expression in recombinant E. coli, overnight cultures of E. coli DH5α pSC11-L and pJN105-L were diluted 1:100 into LB containing selection antibiotics gentamicin and ampicillin in 10 mL cultures. When the cultures reached an OD600 of 0.2–0.3, L-(+)-arabinose was added to a final concentration of 0.25%. […] Aliquots (5 µL) of increasing concentrations of inhibitor test compound stock solution in DMSO were then added to the designated micro centrifuge tubes containing culture. Tubes containing E. coli with just signal and DMSO were included as controls. After 3 h at 37°C with shaking, OD600 was measured using a plate reader, and β-galactosidase activity was measured as described above.

A further assay addresses T2, RhlR (Pseudomonas aeruginosa, UniProt P54292).
T2 construct: expressed in transfected cells; host or cells: E. coli DH5α carrying pECP61.5
Description: E. coli RhlR bioreporter (pECP61.5, rhlA-lacZ), β-galactosidase readout. The assay is classed as cell-based.
Source text: (§4) To test the ability of our set of benzaldehydes and related compounds to antagonize RhlR, we generated dose-response curves with these compounds using an E. coli RhlR reporter strain (Fig. 6; Table 2). This strain is analogous to the LasR reporter above, but it carries plasmid pECP61.5 expressing RhlR from the isopropyl β-D-1-thiogalactopyranoside (IPTG)-inducible […] promoter as well as the rhlA-lacZ reporter ([38]). We also utilized our constitutive lacZ reporter plasmid pVT19 to generate dose-response curves using the RhlR assay conditions (Fig. 6; Table 2). […] With the constitutive lacZ reporter, there was a similar spread in potencies for our compounds, with ortho-vanillin having the lowest IC50 and salicylic acid as the highest. However, the IC50 for ortho-vanillin was fivefold lower with RhlR than with the constitutive lacZ reporter. There were also no observed effects of ortho-vanillin on growth until concentrations at which there was >50% antagonism of the RhlR reporter, and there was no antagonism of the constitutive lacZ reporter until concentrations >500 µM.
as §2
(§5) To assess RhlR activation of rhlR expression in recombinant E. coli, overnight cultures of E. coli DH5α pECP61.5 grown at 30°C in A medium containing antibiotic selection (ampicillin) and IPTG to induce RhlR expression were diluted to an OD600 of 0.1, and 1 mL was added to culture tubes containing dried C4-HSL. Aliquots (5 µL) of DMSO containing increasing concentrations of inhibitor test compound or DMSO with no test compound were added to the designated Eppendorf tubes containing culture. Tubes containing E. coli with signal and DMSO were included as vehicle control. After 5 h at 30°C with shaking, OD600 was measured using a plate reader, and β-galactosidase activity was measured as described above.

Assay [1] relates to constitutive aphA-3-lacZ reporter. The assay is described as follows: E. coli constitutive aphA-3-lacZ reporter (pVT19), RhlR reporter conditions. To be noted: for IC50: Escherichia coli. The format is cell-based, Escherichia coli.
Source text: as §4, §2, §5
(§6) Experiments with the LasR mutants and the constitutive lacZ expression plasmid pVT19 or constitutive gfp expression plasmid pUC18T-mini-Tn7T-Gm-gfpmut3 were carried out identically as described above for the LasR or RhlR bioreporter experiments. Results with the […] constitutive reporter strain were different for the LasR vs RhlR bioreporter protocols likely due to differences in growth conditions (temperature and/or growth media).

The test system is the same in assay [2]. The assay is described as follows: E. coli constitutive aphA-3-lacZ reporter (pVT19), LasR reporter conditions. The assay is classed as cell-based. The settings on record: Escherichia coli, read-out: IC50 ± CI, Constitutive reporter.
Source text: as §1, §2, §3, §6

The test system of assay [3] is constitutive GFP reporter. Description: E. coli constitutive GFP reporter (pUC18T-mini-Tn7T-Gm-gfpmut3). The format is cell-based, Escherichia coli.
Source text: To test whether these effects were specific to the lacZ reporter or general to other reporters, we generated an orsellinaldehyde dose-response curve using a strain constitutively expressing GFP (E. coli carrying a constitutive GFP-producing plasmid pUC18T-mini-Tn7T-Gm-gfpmut3).
as §2, with “The resulting plasmid with the aphA-3 promoter transcriptionally fused to lacZ was designated pVT19. For constitutive expression of the gfp reporter, we used E. coli DH5α with plasmid pUC18T-mini-Tn7T-Gm-gfpmut3 ([53]).” left out

The next assay deals with E. coli. The assay is described as follows: Growth (OD600) of E. coli reporter strain, LasR reporter conditions. The format is cell-based, Escherichia coli. To be noted: at the highest concentrations. How it is done:
as §3

For assay [4], the target named is T3, LasR mutants (Pseudomonas aeruginosa, UniProt P25084, S129A).
T3 construct: expressed in transfected cells; host or cells: E. coli DH5α carrying pSC11-L and a pJN105-L mutant analog (pJG044, pJG008, pJG011, pJG012 or pJG014)
The assay is described as follows: E. coli LasR mutant lasI-lacZ reporters (W60F, Y56F, T75V, Y93F, S129A). The format is cell-based. The settings on record: S129A mutant.
Source text: (§7) To examine these putative interactions between ortho-vanillin and LasR, we determined the activity of ortho-vanillin in several LasR mutants. In prior studies in our laboratories, a set of LasR mutants were generated in which residues within the ligand-binding pocket were mutated to a different residue of similar steric size but without the capability to hydrogen bond (e.g., Tyr → Phe). These mutants were introduced into E. coli to generate lasI-lacZ reporters analogous to the wild-type LasR reporter above (see Table S1 and Materials and Methods). From that set, we selected five LasR mutant reporters to test ortho-vanillin (W60F, Y56F, T75V, Y93F, and S129A), which included the Thr75 and Ser129 residues predicted to be important for ortho-vanillin interaction in our in silico study. […] As a control, we also tested the ability of V-06–018 to antagonize the LasR S129A mutant. We used the same approach to test the ability of […] to antagonize LasR and the LasR S129A mutant. […] Results from one of the concentrations (100 µM) are shown instead.
as §2, with “The resulting amplicon was digested with EcoRI and BamHI and ligated into similarly digested pKS12A ([52]). The resulting plasmid with the aphA-3 promoter transcriptionally fused to lacZ was designated pVT19. For constitutive expression of the gfp reporter, we used E. coli DH5α with plasmid pUC18T-mini-Tn7T-Gm-gfpmut3 ([53]).” left out

The test system of assay [5] is LasR mutants. The assay is described as above. The format is cell-based, Pseudomonas aeruginosa. To be noted: W60F, Y56F, T75V, Y93F, S129A; competed against 3OC12-HSL at EC50 of each mutant.
Source text: as §7
as §2, with “The resulting amplicon was digested with EcoRI and BamHI and ligated into similarly digested pKS12A ([52]). The resulting plasmid with the aphA-3 promoter transcriptionally fused to lacZ was designated pVT19. For constitutive expression of the gfp reporter, we used E. coli DH5α with plasmid pUC18T-mini-Tn7T-Gm-gfpmut3 ([53]).” left out

Where [6] appears, read: IC50 ± CI, RhlR reporter, competed against 400 nM C4-HSL, 95% confidence interval in parentheses.
[7] abbreviates: read-out: IC50 ± CI, Constitutive reporter.

T2 sequence (P54292 whole entry): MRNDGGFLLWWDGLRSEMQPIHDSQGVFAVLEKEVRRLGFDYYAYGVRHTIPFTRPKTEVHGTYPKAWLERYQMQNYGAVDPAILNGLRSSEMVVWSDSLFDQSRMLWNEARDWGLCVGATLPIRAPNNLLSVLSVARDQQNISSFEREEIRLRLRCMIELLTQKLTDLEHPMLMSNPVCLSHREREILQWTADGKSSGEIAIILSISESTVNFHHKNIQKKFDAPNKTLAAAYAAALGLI
T1 sequence (P25084 whole entry): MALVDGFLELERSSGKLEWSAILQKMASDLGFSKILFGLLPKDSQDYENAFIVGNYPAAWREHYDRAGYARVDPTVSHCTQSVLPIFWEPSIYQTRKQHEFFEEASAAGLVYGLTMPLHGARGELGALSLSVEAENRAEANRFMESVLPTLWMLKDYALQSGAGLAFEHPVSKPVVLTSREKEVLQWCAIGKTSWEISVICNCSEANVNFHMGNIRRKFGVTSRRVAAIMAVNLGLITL
T3 sequence (P25084 whole entry S129A): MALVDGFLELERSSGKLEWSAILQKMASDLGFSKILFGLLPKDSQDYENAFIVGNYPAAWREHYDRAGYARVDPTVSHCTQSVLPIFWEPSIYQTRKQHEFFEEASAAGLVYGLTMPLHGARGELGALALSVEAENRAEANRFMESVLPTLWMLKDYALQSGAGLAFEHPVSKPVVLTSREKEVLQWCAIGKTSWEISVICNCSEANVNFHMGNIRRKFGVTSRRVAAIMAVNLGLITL

Regarding `COc1ccc(C=O)c(O)c1` [2-hydroxy-4-methoxybenzaldehyde], the 50% inhibitory concentration (IC50) (commonly the point on the concentration scale where inhibition reaches its midpoint) at LasR is 1040 µM; on RhlR (setting [6]), 458 µM; in assay [1] (setting [7]) it was 1360 µM; in assay [2] it was 1960 µM.

On to `Cc1ccc(O)c(C=O)c1` [2-hydroxy-5-methylbenzaldehyde], for which, at LasR, the “fold lower concentration inhibiting LasR-specific reporter than constitutive reporter” value is given as 1.3 fold. Besides, the IC50 at LasR came out at 1500 µM; on RhlR (setting [6]), 1080 µM; in assay [1] (setting [7]), 1790 µM; in assay [2] it was 2020 µM.

In the case of `O=C/C=C/c1ccccc1` [Cinnamaldehyde], the IC50 stood at 851 µM on LasR, 1310 µM on RhlR (setting [6]), 2850 µM in assay [1] (setting [7]) and 1460 µM in assay [2].

As to `Cc1cc(O)cc(O)c1C=O` [Orsellinaldehyde], in assay [3] (E. coli constitutive GFP reporter, Fig. S1 legend), the “calculated LD50 of orsellinaldehyde with GFP” value is recorded as 1057 µM. Besides, the IC50 in assay [3] (Escherichia coli, read-out: IC50, constitutive GFP reporter) stood at 1060 µM; on LasR, 2370 µM; on RhlR (setting [6]), 956 µM; in assay [1] (setting [7]), 2750 µM; in assay [2], 2310 µM. In addition, the “reduction of growth yield” value with E. coli was 10%–20%.

In the case of `O=C(O)c1ccccc1O` [Salicylic acid, reference compound], the IC50 was approximately 10000 µM on RhlR (IC50, RhlR reporter, competed against C4-HSL); 10000 µM at RhlR (setting [6]); 6260 µM in assay [1] (setting [7]); 3650 µM in assay [2].

With `CCCCCCCCCC(=O)CC(=O)Nc1ccccc1` [V-06–018], the “antagonism of LasR S129A mutant compared with wild-type LasR” value on LasR mutants [4] (competed against 3OC12-HSL at its EC50) is on record as “significantly less active”. Also, the “IC50, LasR S129A mutant” value at LasR mutants [4] (insufficient antagonism) is “could not be determined”.

As for `COc1cccc(C=O)c1O` [ortho-Vanillin], on LasR (3OC12-HSL at […] nM, 1 µM and 10 µM, P > 0.07), the “difference in IC50 with varying 3OC12-HSL concentration (competition test)” value is reported as “not significant”. For the same compound, at LasR, the “fold lower concentration inhibiting LasR-specific reporter than constitutive reporter” value is reported as “threefold”. Besides, the IC50 on LasR amounted to 437 µM; at RhlR (setting [6]) it was 151 µM; in assay [1] (read-out: IC50, Constitutive reporter, Hill slope set at 1.0), 774 µM; in assay [1] (setting [7]), 872 µM; in assay [2] it was 1260 µM. Further, at RhlR (C4-HSL at 400 nM, 10 µM and 100 µM), the “change in potency with varying C4-HSL concentration (competition test)” value was “significant C4-HSL concentration-dependent decrease in the potency”. In addition, at RhlR (IC50 constitutive lacZ reporter vs RhlR reporter), the “fold lower IC50 with RhlR than with constitutive lacZ reporter” value was “fivefold”. Also, the “concentration until which there was no antagonism of the constitutive lacZ reporter” value in assay [1] (RhlR reporter conditions) is recorded as more than 500 µM. The “antagonism of LasR mutants compared with wild-type LasR” value with LasR mutants [5] is reported as “indistinguishable from that of the wild-type LasR”.
